Source: paper PMC11602115 (Journal of Medicinal Chemistry, 2017)
Where two headings read alike, the source gives them in different places.

How the values were obtained:
human DP1 receptor = molecular target: T1, human DP1 receptor (Homo sapiens, UniProt Q13258); test: HTRF cAMP assay, recombinant human DP1 receptor in CHO-K1 cells; assay type: cell-based; details: for Emax: CHO-K1, intrinsic activity relative to 1 μM PGD2, read-out: hDP1 % IA
T1 construct: expressed in transfected cells
T1 sequence (Q13258 1-359): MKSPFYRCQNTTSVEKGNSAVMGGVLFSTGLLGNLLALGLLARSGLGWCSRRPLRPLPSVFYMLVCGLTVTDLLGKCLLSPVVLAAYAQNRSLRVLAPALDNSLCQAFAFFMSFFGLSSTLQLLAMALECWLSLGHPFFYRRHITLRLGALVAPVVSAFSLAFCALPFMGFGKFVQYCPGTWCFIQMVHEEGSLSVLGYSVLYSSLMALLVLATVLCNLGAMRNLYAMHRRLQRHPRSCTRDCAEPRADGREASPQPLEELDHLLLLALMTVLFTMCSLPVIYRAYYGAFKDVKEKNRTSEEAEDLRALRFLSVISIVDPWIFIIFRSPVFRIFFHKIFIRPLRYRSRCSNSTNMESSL
Protocol: (§1) The new compounds were tested for functional agonist activity in a standard (Cisbio) cAMP assay using recombinant IP or DP1 receptors stably expressed in CHO-K1 cells. Clonal cell lines were derived following standard protocols, but receptor expression levels were kept to a minimum to preclude receptor reserve effects.
(§2) For development of cAMP accumulation assays, recombinant IP or DP1 receptors were stably expressed in CHO-K1 cells and clonal cell lines derived following standard protocols. Receptor expression levels were minimized to preclude receptor reserve effects. HTRF cAMP assays were performed according to the manufacturer’s instructions (Cisbio, cAMP Dynamic 2 assay kit; no. 62AM4PEJ). IP receptor-expressing cells were harvested, resuspended in assay buffer (PBS containing 1 mM IBMX and 0.2% BSA) at a density of 200 000 cells per mL, and dispensed into 384-well assay plates (PerkinElmer Proxiplate no. 6008280) at 5 μL per well. Test compounds were solubilized and serially diluted in DMSO using 5-fold dilutions to generate a 10-point dose–response curve with a top concentration of 10 μM. The samples were then further diluted in PBS to achieve a 2× stock. Diluted compounds were then transferred to a triplicate set of assay plates (5 μL per well). After a 1 h incubation at room temperature, 5 μL of cAMP-D2 reagent diluted in lysis buffer was added to each well followed by 5 μL of cryptate reagent. Plates were then incubated at room temperature for 1 h prior to reading. Time-resolved fluorescence measurements were collected on PerkinElmer Envision or BMG Pherastar microplate readers.

human platelet = test: Inhibition of ADP-induced human platelet aggregation; assay type: cell-based; details: aggregation induced by 2.5 μM ADP, mean of at least two determinations
Protocol: Such aggregated and activated platelets produce vasoactive substances such as thromboxane and serotonin that may cause harmful vasoconstriction and vascular remodeling.[13] […] This secondary assay was carried out as previously described,[14] with aggregation induced by 2.5 μM ADP in the presence or absence of IP receptor agonists.

[1] = Stability in human microsome preparations; assay type: in vitro ADME; details: incubation at 37 °C, human microsomes; read-out: human MS, T1/2
Description: (§3) Table 1 Screening Data for Selected Analogues ^a | column: human and rat MS, T1/2 (min) ^g

[2] = Stability in rat microsome preparations; assay type: in vitro ADME; details: incubation at 37 °C, rat microsomes; read-out: rat MS, T1/2
Description: as §3

Rat PK (iv and oral) = assay type: in vivo; details: for AUC(0-inf) / bioavailability: Sprague-Dawley, plasma; for AUC(0-inf): after oral administration 10 mg/kg (5m 10.5); for bioavailability: po, 10 mg/kg; for Cmax / Tmax: po 10 mg/kg (5m 10.5); for T1/2: terminal half-life after iv 2 mg/kg (5m 2.1); for Clobs: total clearance, iv 2 mg/kg (5m 2.1)
IP [3] = molecular target: T2, IP (Homo sapiens, UniProt P43119); test: HTRF cAMP assay, recombinant human IP receptor stably expressed in CHO-K1 cells; assay type: cell-based; parameters: expressed in transfected cells
Protocol: as §1, §2

rat IP = rat IP (Rattus norvegicus, UniProt P43253); test: HTRF cAMP assay, recombinant rat IP receptor; assay type: cell-based; parameters: expressed in transfected cells; details: for EC50: HTRF (cAMP) rat IP receptor assay, mean of at least three determinations; for Emax: read-out: rIP % IA
Protocol: as §1, §2

EP2 = EP2 (Homo sapiens, UniProt P43116); test: cAMP HTRF agonist assay, EP2; assay type: cell-based; details: cAMP HTRF agonist assay
Description: (§4) Table Sup2: Data with some comparator compounds in functional assays. […]

EP4 = EP4 (Homo sapiens, UniProt P35408); test: cAMP HTRF agonist assay, EP4; assay type: cell-based; details: cAMP HTRF agonist assay
Description: (§5) Table Sup2: Data with some comparator compounds in functional assays.
(§6) Compound DP1 EP1 EP2 EP3v6 EP4
(§7) EC50, µµµµM (% I.A) EC50, µµµµM (% I.A) EC50, µµµµM (% I.A) EC50, µµµµM (% I.A) EC50, µµµµM (% I.A)
(§8) n = 3 n = 2 n = 8 n = 6 n = 6 […]

EP1 = molecular target: T3, EP1 (Homo sapiens, UniProt P34995); test: cAMP HTRF agonist assay, EP1; assay type: cell-based
T3 sequence (P34995 1-402): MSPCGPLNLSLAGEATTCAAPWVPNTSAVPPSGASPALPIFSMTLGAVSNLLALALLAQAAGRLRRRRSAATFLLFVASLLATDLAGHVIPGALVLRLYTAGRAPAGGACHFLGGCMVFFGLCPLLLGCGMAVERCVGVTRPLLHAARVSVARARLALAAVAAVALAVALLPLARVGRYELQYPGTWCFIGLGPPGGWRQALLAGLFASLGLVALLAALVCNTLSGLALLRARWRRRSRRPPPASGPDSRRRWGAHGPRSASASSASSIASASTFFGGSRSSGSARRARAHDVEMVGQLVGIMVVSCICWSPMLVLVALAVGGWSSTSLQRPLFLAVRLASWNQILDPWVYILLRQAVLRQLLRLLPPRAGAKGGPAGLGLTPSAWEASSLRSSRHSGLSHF
Description: as §5, §6, §7, §8

EP3v6 = molecular target: T4, EP3v6 (Homo sapiens, UniProt P43115); test: Melanophore dispersion assay, EP3v6; assay type: cell-based; parameters: expressed in transfected cells; host or cells: melanophores (transient, electroporation); details: melanophore dispersion assay (Gi)
T4 sequence (P43115 1-374 isoform P43115-4): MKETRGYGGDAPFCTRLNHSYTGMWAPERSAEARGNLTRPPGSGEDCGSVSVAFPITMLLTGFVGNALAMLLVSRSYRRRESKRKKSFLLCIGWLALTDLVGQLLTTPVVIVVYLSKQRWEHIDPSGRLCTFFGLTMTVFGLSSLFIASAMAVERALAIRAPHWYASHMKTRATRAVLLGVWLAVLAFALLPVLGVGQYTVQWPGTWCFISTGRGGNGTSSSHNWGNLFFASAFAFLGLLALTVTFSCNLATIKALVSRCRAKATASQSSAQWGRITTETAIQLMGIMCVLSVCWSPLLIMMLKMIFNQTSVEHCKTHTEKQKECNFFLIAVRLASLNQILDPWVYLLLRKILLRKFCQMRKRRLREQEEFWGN
Protocol: For the EP3v6 receptor functional assay, melanophores were transfected by electroporation using 20 μg of recombinant human EP3v6 receptor plasmid DNA per 400 μL of cell suspension. Transfected cells were immediately resuspended in fresh growth medium and plated in 384-well clear, polystyrene microplates. Plated cells were incubated at 27 °C for 48 h after transfection in order to achieve optimal receptor expression. To perform the assay, growth medium was removed from the assay plates and replaced with assay buffer (40 μL/well, 0.7× PBS, pH 7.3, supplemented with 20 nM melatonin to induce pigment aggregation). Following a 90 min incubation at room temperature, a 650 nm absorbance reading was collected and test compounds (10 μL per well) were transferred to the assay plates. Plates were incubated for 90 min at room temperature to allow compound-induced pigment redistribution to take place, and final absorbance reading was then collected. Test compounds were solubilized and serially diluted in DMSO, using 5-fold dilutions, to generate a 10-point dose–response curve with a top concentration of 10 μM (final assay concentration). Samples were then further diluted in assay buffer to achieve a 5× stock prior to addition to the assay plates. A SpectraMax absorbance plate reader (Molecular Devices, Inc.) was used for data collection.
as §4

[4] = test system: primary human pulmonary arterial smooth muscle cells; test: HTRF cAMP assay in primary human pulmonary arterial smooth muscle cells; assay type: cell-based
Protocol: Additional In Vitro Assays […]
Compounds were also evaluated in HTRF cAMP assays using primary human pulmonary arterial smooth muscle cells (Cell Applications, Inc., #352Kq05a, or ThermoFisher/Gibco, #C0095C) using the same basic assay protocol outlined in the Experimental section. Cells were cultured as recommended by the suppliers, used at low passage and seeded into 384qwell assay plates at a density of 700q900 cell per well

IP [5] = molecular target: T2, IP; test: Recombinant human IP receptor cAMP assay after elimination of receptor reserve (transient CHO); assay type: cell-based; parameters: expressed in transfected cells; details: following elimination of receptor reserve
Description: Additional In Vitro Assays
To determine the potency and efficacy of compounds in cAMP assays in the absence of receptor reserve effects, the cDNA sequence of the human IP receptor was subqcloned into an expression plasmid containing a ubiquitin promoter in place of the more commonly used CMV promoter. The ubiquitin […]
level of receptor expression after transfection into a suitable cell line. This plasmid was transiently transfected into CHO cells using lipofectamine, following standard protocols. The quantity of transfected plasmid DNA was titrated down from 16 µg to 1 ng per transfection using empty vector as carrier DNA.

[6] = HTRF (cAMP) human DP1 receptor assay, mean of at least three determinations, read-out: EC50 hDP1
[7] = HTRF (cAMP) human IP receptor assay; mean of at least three determinations
[8] = cAMP HTRF agonist assay (Gs), Table Sup2
[9] = cAMP HTRF agonist assay (Gs), Table Sup2, read-out: DP1 EC50

rat IP, sequence (P43253 whole entry): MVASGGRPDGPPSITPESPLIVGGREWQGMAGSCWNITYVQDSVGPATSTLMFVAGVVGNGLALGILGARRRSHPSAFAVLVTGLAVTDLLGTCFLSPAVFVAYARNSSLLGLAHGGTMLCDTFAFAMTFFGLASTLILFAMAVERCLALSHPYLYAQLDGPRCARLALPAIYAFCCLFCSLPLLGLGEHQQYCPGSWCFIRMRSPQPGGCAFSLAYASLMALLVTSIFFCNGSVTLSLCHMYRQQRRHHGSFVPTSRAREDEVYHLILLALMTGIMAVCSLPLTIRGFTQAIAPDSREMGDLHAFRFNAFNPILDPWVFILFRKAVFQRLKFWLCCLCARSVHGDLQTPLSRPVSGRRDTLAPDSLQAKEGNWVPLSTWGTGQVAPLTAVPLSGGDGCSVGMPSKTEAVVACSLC
T2 sequence (P43119 whole entry): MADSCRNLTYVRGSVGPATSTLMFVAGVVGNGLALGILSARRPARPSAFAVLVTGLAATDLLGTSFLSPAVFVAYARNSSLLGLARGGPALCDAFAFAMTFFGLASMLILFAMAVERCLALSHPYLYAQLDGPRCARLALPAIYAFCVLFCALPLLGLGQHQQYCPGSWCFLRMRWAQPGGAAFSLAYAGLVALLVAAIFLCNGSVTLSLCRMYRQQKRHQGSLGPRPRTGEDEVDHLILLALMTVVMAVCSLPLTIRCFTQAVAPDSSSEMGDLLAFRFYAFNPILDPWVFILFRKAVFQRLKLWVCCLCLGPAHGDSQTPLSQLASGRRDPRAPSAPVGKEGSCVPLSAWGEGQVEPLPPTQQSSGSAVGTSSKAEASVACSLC
EP2, sequence (P43116 whole entry): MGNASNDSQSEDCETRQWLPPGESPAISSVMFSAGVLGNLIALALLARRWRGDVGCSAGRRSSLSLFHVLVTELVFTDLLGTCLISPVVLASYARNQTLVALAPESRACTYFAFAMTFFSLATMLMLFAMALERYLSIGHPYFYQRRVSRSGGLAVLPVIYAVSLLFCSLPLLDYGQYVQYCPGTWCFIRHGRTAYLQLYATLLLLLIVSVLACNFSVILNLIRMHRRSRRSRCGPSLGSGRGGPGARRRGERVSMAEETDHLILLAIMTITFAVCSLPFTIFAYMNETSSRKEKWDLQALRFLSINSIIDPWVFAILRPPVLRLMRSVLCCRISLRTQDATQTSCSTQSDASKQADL
EP4, sequence (P35408 whole entry): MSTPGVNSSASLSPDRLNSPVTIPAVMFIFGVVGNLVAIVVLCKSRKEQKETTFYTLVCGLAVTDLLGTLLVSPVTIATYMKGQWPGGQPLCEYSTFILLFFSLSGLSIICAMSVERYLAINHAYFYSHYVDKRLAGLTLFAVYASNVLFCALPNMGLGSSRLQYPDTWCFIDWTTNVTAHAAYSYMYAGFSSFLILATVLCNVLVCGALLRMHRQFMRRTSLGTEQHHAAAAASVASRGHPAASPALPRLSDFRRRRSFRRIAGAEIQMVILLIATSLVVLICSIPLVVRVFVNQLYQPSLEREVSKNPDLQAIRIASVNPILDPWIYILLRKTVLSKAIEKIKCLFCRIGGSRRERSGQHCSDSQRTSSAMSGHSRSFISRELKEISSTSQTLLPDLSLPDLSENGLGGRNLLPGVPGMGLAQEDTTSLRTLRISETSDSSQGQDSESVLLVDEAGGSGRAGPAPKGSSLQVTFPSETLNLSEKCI

SMILES | Emax (human DP1 receptor) [%] | EC50 (human DP1 receptor; [6]) [nM] | IC50 (human platelet) [nM] | half-life [1] [h] | half-life [2] [h] | AUC(0-inf) (Rat PK (iv and oral)) [ng·h/mL] | bioavailability (Rat PK (iv and oral)) [%] | Cmax (Rat PK (iv and oral)) [ng/mL] | Tmax (Rat PK (iv and oral)) [h] | T1/2 (Rat PK (iv and oral)) [h] | Clobs (Rat PK (iv and oral)) [L h^–1 kg^–1] | Emax (IP [3]; CHO-K1; read-out: hIP % IA) [%] | EC50 (IP [3]; [7]) [nM] | EC50 (rat IP) [nM] | Emax (rat IP) [%] | EC50 (human DP1 receptor; [9]) [nM] | EC50 (EP2) [nM] | EP2 % I.A (EP2) [%] | DP1 % I.A (human DP1 receptor; [8]) [%] | EC50 (EP4) [nM] | other results
O=C(O)COC[C@H]1CC[C@H](COC(=O)N(c2ccccc2)c2ccc(Cl)c(F)c2)CC1 [5m, 2-(((1r,4r)-4-(((4-Chloro-3-fluorophenyl)(phenyl)carbamoyloxy)methyl)cyclohexyl)methoxy)acetic Acid] | 38 | 2050 | 23 | > 1 | > 1 | 2600 | 88 | 3000 | 0.5 | 5 | 0.8 | 85 | 3.4 | 400 | 92 |  |  |  |  |  | 
O=C(O)COC[C@H]1CC[C@H](COC(=O)N(c2ccccc2)c2ccc(F)c(F)c2)CC1 [5o, 2-(((1r,4r)-4-(((3,4-Difluorophenyl)(phenyl)carbamoyloxy)methyl)cyclohexyl)methoxy)acetic Acid] | 45 | 5000 | 19 | > 1 | > 1 | 4500 | 24 | 1430 | 0.833 | 3.2 | 0.6 | 88 | 10 | 640 | 95 |  |  |  |  |  | 
O=C(O)CCCCCCC1C(=O)NC(=O)N1CCC(O)C1CCCCC1 (centres unmarked) [BW245C] |  |  |  |  |  |  |  |  |  |  |  |  |  |  |  | 0.8 | 790 | 73 | 98 | > 10000 | 
CC(C)N(CCCCOCC(=O)O)c1cnc(-c2ccccc2)c(-c2ccccc2)n1 [compound 2, MRE269] | 80 | 154 | 288 |  |  |  |  |  |  |  |  |  | 22 |  |  |  | > 10000 |  | 80 | > 10000 | Efficacy (% vs. Iloprost) [95% CI], primary human PASMC cAMP [4]: 41 [33, 49] %; EC50 ([4]; Homo sapiens, PASMC, n = 8, read-out: EC50 [95% CI], primary human PASMC cAMP): 184 nM; Emax (IP [3]; CHO-K1, read-out: hIP % IA): 60%; Efficacy (% vs. Iloprost) [95% CI], recombinant IP receptor cAMP (IP [5]): 48 [43, 53] %; EC50 (IP [5]; n = 9, read-out: EC50 [95% CI], recombinant IP receptor cAMP): 151 nM; EC50 (EP3v6): > 10000 nM

More lines, main results first:

Emax (human DP1 receptor) [%] | EC50 (human DP1 receptor; [6]) [nM] | IC50 (human platelet) [nM] | half-life [1] [h] | half-life [2] [h] | AUC(0-inf) (Rat PK (iv and oral)) [ng·h/mL] | bioavailability (Rat PK (iv and oral)) [%] | Cmax (Rat PK (iv and oral)) [ng/mL] | Tmax (Rat PK (iv and oral)) [h] | T1/2 (Rat PK (iv and oral)) [h] | Clobs (Rat PK (iv and oral)) [L h^–1 kg^–1] | Emax (IP [3]; CHO-K1; read-out: hIP % IA) [%] | EC50 (IP [3]; [7]) [nM] | EC50 (rat IP) [nM] | Emax (rat IP) [%] | EC50 (human DP1 receptor; [9]) [nM] | EC50 (EP2) [nM] | EP2 % I.A (EP2) [%] | SMILES | DP1 % I.A (human DP1 receptor; [8]) [%] | EC50 (EP4) [nM] | other results
 |  |  |  |  |  |  |  |  |  |  |  |  |  |  | 1.3 | > 10000 |  | CCCCC[C@H](O)/C=C/[C@H]1C(=O)C[C@H](O)[C@@H]1C/C=C\CCCC(=O)O [PGD2] |  |  | EC50 (EP1): > 10000 nM
 |  |  |  |  |  |  |  |  |  |  |  |  |  |  | 520 |  | 84 | CCCCC[C@H](O)/C=C/[C@H]1[C@H](O)CC(=O)[C@@H]1C/C=C\CCCC(=O)O [PGE2] |  |  | EC50 (EP1): 51 nM; EP1 % I.A (EP1): 92%; EP3v6 % I.A (EP3v6): 100%
